Data published in patent US10793519B2, “Ultra short acting anti-arrhythmic agents” (Academic Pharmaceuticals Incorporated, priority 2018, dated 2020).
Where two headings read alike, the source gives them in different places.

Legend:
hERG channel = hERG channel (Homo sapiens, UniProt Q12809); assay: whole-cell voltage-clamp tail current / current density experiments in hERG-HEK cells
Protocol: A set of whole-cell, voltage-clamp experiments was performed using a HEKA® EPC 9 amplifier. Data was recorded and analyzed using the HEKA® Patchmaster and Fitmaster software. At the time of the recordings, cell culture media was replaced by a bath solution (containing (mM): 137 NaCl, 4 KCl, 1.8 CaCl2, 10 HEPES, and 10 glucose, pH adjusted to 7.4 with NaOH). The pipette solution containing different concentrations of the drug to test was introduced. Borosilicate glass electrodes (tip resistant 2-5 MΩ) were filled with internal solution (containing (mM): 130 KCl, 1 MgCl2, 5 EGTA, 5 MgATP and 10 HEPES, pH adjusted to 7.2 with KOH). Tail currents were measured at repolarizing test potentials (−100 to +40 mV, 4 seconds each) following a one second depolarizing step to +60 mV from a holding potential of −80 mV. Cell recordings were performed in a minimum of 2 plates (3-5 cells/plate) for each EFV concentration and compared to control.
In hERG-HEK cells that were transiently […] with CYP2B6*1 cDNA, tail current recordings were performed using the following 2-sweep voltage clamp protocol: membrane potential was held at −80 mV, increased to 60 mV (1 second), and currents were measured during two repolarizing steps at −100 and −20 mV (5 seconds each). This protocol was performed twice for each cell at 1 and 2 minutes following cytosolic access and exposure to the pipette solution to evaluate the influence of incubation time on drug mediated alterations in hERG channel conductivity. A sigmoidal Emax model was fit to the EFV inhibitory effect on 1hERG using Prism (GraphPad Software, Inc., La Jolla, Calif.).
Sotalol ester, soestolol (ester A, Table 1, Example 1) and its corresponding acid (ester C) were evaluated. The studies were performed blinded with the operator unaware of the chemical structure of Ester A or Ester C.

[1] = cited from earlier work

Chain of hERG channel (Q12809 whole entry): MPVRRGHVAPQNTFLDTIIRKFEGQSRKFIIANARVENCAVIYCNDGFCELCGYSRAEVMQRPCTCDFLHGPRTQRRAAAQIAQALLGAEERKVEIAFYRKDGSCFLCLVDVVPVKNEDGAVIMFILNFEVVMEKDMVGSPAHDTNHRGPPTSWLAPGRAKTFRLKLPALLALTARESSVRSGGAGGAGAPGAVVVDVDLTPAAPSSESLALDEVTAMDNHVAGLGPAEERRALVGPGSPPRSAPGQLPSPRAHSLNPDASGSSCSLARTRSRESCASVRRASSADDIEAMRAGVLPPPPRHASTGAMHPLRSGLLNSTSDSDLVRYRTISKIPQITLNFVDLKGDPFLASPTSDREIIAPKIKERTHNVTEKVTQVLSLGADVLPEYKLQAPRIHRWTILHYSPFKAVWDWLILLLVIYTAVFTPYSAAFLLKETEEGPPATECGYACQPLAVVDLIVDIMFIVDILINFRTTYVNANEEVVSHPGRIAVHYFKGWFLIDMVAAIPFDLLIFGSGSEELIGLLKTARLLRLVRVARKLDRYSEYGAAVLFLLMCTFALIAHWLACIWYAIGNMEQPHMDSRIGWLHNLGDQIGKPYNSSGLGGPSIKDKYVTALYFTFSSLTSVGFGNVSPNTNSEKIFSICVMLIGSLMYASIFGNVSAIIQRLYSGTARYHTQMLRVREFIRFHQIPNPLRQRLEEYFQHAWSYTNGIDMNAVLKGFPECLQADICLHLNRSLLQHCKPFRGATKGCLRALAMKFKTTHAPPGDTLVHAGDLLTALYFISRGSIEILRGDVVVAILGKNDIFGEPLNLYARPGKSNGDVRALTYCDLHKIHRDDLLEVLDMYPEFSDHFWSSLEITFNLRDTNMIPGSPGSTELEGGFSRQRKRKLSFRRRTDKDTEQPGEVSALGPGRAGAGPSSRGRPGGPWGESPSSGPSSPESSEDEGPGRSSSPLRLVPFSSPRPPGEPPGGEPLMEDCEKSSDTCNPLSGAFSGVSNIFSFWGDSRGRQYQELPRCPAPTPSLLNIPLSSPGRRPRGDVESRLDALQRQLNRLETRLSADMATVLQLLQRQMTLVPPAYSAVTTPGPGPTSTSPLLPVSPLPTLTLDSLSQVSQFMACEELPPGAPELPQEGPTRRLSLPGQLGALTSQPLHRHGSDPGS

Structure (SMILES): COC(=O)CS(=O)(=O)Nc1ccc(C(O)CNC(C)C)cc1 (stereo not drawn) [Ester A]
- inhibition of K current (current density), FIG. 1 (hERG channel): dose dependent reduction in current
- potency on K current compared with sotalol, FIG. 1 (hERG channel): significantly more potent than the corresponding sotalol dose

Structure (SMILES): CC(C)NCC(O)c1ccc(NS(=O)(=O)CC(=O)O)cc1 (stereo not drawn) [Ester C]
- activity on current, FIG. 2 (hERG channel): no activity

Structure (SMILES): CC(C)NCC(O)c1ccc(NS(C)(=O)=O)cc1 (stereo not drawn) [sotalol]
- half-life ([1]; in man, on average): twelve
- terminal elimination half-life ([1]; in vivo): 10 to 20 h
- reduction in current, FIG. 2 (hERG channel; 5 μM): dose related reduction in current
- reduction in current, FIG. 2 (hERG channel; 50 μM): dose related reduction in current
- inhibition of K current (current density), FIG. 1 (hERG channel; 5 μm): reduction in current
- inhibition of K current (current density), FIG. 1 (hERG channel; 10 μm): further reduction
